Assay results as given in patent US20230355542A1, “DRUG-ELUTING DEVICE WITH GENETIC AND CHEMICAL THERAPEUTICS FOR TREATING OR PREVENTING VASCULAR ACCESS DYSFUNCTIONS” (priority 2022, published 2023).

Test system: neointima formation in the venous arms of AV fistulae
Test: systemic E2 in AV fistula model with experimentally induced chronic kidney disease
Assay type: in vivo
Settings: systemic E2 100 ug/day, i.p; animals with experimentally induced CKD
Method: Systemic administration of estradiol, i.e., E2 (Molecular Weight: 272.38 Formula: […] Dissolves in absolute Ethanol) requires weekly therapeutic injections ([Study 1:10 weeks old+OVX (ovariectomy)+1 week+NX (nephrectomy)+4 weeks+AVF+4 weeks (with systemic E2 [100 ug/day, i.p])+4 weeks]) that are not applicable in real-life clinical settings. […] The nanoparticle membrane disclosed herein may locally deliver nanoparticles for the carotid artery ligation model and potentially for the AV Fistula injury site, replacing weekly injections, without the requirement for elevated systemic levels of E2. Nanoparticles may be successfully delivered and retained in layers of carotid artery tissue on a mouse model with significant enhancement.

C[C@]12CC[C@@H]3c4ccc(O)cc4CC[C@H]3[C@@H]1CC[C@@H]2O [estrogen, estradiol]
effect on neointima formation: inhibits neointima formation
